US8952024B2, “Herbicidal pyrimidone derivatives” (E I du Pont de Nemours and Company, priority 2009, dated 2015)

Assays:
Assay type in all cases: in vivo
kochia (Kochia scoparia) = experiment: Test B pre-/postemergence plant response
Description: (§1) Seeds of plant species selected from blackgrass (Alopecurus myosuroides), downy bromegrass (Bromus tectorum), green foxtail (Setaria viridis), Italian ryegrass (Lolium multiflorum), wheat (Triticum aestivum), wild oat (Avena fatua), deadnettle (henbit deadnettle, Lamium amplexicaule), galium (catchweed bedstraw, Galium aparine), bermudagrass (Cynodon dactylon), Surinam grass (Brachiaria decumbens), cocklebur (Xanthium strumarium), corn (Zea mays), large crabgrass (Digitaria sanguinalis), woolly cupgrass (Eriochloa villosa), giant foxtail (Setaria faberii), goosegrass (Eleusine indica), johnsongrass (Sorghum halepense), kochia (Kochia scoparia), lambsquarters (Chenopodium album), morningglory (Ipomoea coccinea), nightshade (eastern black nightshade, Solanum ptycanthum), yellow nutsedge (Cyperus esculentus), pigweed (Amaranthus retroflexus), ragweed (common ragweed, Ambrosia elatior), Russian thistle (Salsola kali), soybean (Glycine max), sunflower (common oilseed sunflower, Helianthus annuus) and velvetleaf (Abutilon theophrasti) were planted into a blend of loam soil and sand and treated preemergence with test compounds formulated in a non-phytotoxic solvent mixture which included a surfactant.
(§2) At the same time, plants selected from these crop and weed species and also winter barley (Hordeum vulgare), canarygrass (Phalaris minor), chickweed (Stellaria media) and windgrass (Apera spica-venti) were planted in pots containing Redi-Earth® planting medium (Scotts Company, 14111 Scottslawn Road, Marysville, Ohio 43041) comprising spaghnum peat moss, vermiculite, wetting agent and starter nutrients and treated with postemergence applications of some of the test chemicals formulated in the same manner. Plants ranged in height from 2 to 18 cm (1- to 4-leaf stage) for postemergence treatments.
(§3) Treated plants and controls were maintained in a greenhouse for 13 to 15 days, after which time all treated plants were visually evaluated and compared to controls. Plant response ratings, summarized in Table B, are based on a scale of 0 to 100 where 0 is no effect and 100 is complete control. A dash (-) response means no test result.

[1] = system: Surinam grass (Brachiaria decumbens); experiment: Test B pre-/postemergence plant response
Description: as §1, §2, §3

[2] = system: lambsquarters (Chenopodium album); experiment: Test B pre-/postemergence plant response
Description: as §1, §2, §3

[3] = system: velvetleaf (Abutilon theophrasti); experiment: Test B pre-/postemergence plant response
Description: as §1, §2, §3

[4] = system: cocklebur (Xanthium strumarium); experiment: Test B pre-/postemergence plant response
Description: as §1, §2, §3

[5] = system: pigweed (Amaranthus retroflexus); experiment: Test B pre-/postemergence plant response
Description: as §1, §2, §3

[6] = system: blackgrass (Alopecurus myosuroides); experiment: Test B pre-/postemergence plant response
Description: as §1, §2, §3

soybean (Glycine max) = experiment: Test B pre-/postemergence plant response
Description: as §1, §2, §3

[7] = system: wheat (Triticum aestivum); experiment: Test B pre-/postemergence plant response
Description: as §1, §2, §3

wild oat (Avena fatua) = experiment: Test B pre-/postemergence plant response
Description: as §1, §2, §3

[8] = system: windgrass (Apera spica-venti); experiment: Test B postemergence plant response; details: for Plant response rating, Windgrass: Postemergence
Outline: (§4)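 Visual ratings from 0 (no effect) to 100 (complete control), made against controls 13–15 days after treatment, kept in a greenhouse. Compounds were applied postemergence to potted plants at the 1- to 4-leaf stage (2–18 cm).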

[9] = system: chickweed (Stellaria media); experiment: Test B postemergence plant response
Outline: as §4

[10] = system: canarygrass (Phalaris minor); experiment: Test B postemergence plant response
Outline: as §4

[11] = Postemergence, 62 g ai/ha, scale 0 (no effect) to 100 (complete control), 13 to 15 days
[12] = Postemergence, 125 g ai/ha, visual rating after 13 to 15 days, scale 0 (no effect) to 100 (complete control)
[13] = Postemergence, 250 g ai/ha, scale 0 to 100
[14] = 250 g ai/ha, Preemergence, 0 to 100 scale
[15] = Preemergence, 31 g ai/ha, scale 0 to 100 (0 no effect, 100 complete control)
[16] = Preemergence, 62 g ai/ha, scale 0 to 100 (0 no effect, 100 complete control)
[17] = Preemergence, 125 g ai/ha, 0 to 100 scale
[18] = Postemergence, 31 g ai/ha, scale 0 to 100 (0 no effect, 100 complete control)
[19] = 62 g ai/ha, postemergence, 0 is no effect, 100 is complete control, 13 to 15 days
[20] = Postemergence, 31 g ai/ha, 0 to 100 scale (0 no effect, 100 complete control)
[21] = Postemergence, 125 g ai/ha, scale 0 to 100 (0 no effect, 100 complete control)
[22] = Postemergence, 250 g ai/ha, scale 0 to 100 (0 no effect, 100 complete control), 13 to 15 days

Cc1cc(C)cc(-n2c(-c3ccccc3)ncc(C(=O)C3=C(O)CCCC3=O)c2=O)c1 [Compound 33]
Plant response rating, Kochia (kochia (Kochia scoparia); [11]): 80
Plant response rating, Kochia (kochia (Kochia scoparia); [12]): 95
Kochia plant response rating (kochia (Kochia scoparia); [13]): 98
Plant response rating, Surinam Grass [1, 14]: 100
Plant response rating, Surinam Grass [1, 11]: 65
Plant response rating, Surinam Grass [1, 12]: 75
Plant response rating, Surinam Grass [1, 15]: 0
Plant response rating, Surinam Grass [1, 16]: 65
Surinam Grass plant response rating [1, 17]: 95
Plant response rating, Lambsquarters [2, 14]: 100
Plant response rating, Lambsquarters [2, 11]: 98
Plant response rating, Lambsquarters [2, 12]: 98
Lambsquarters plant response rating [2, 13]: 100
Plant response rating, Lambsquarters [2, 15]: 98
Plant response rating, Lambsquarters [2, 16]: 100
Lambsquarters plant response rating [2, 17]: 100
Plant response rating, Velvetleaf [3, 14]: 100
Plant response rating, Velvetleaf [3, 11]: 90
Plant response rating, Velvetleaf [3, 12]: 98
Plant response rating, Velvetleaf [3, 15]: 80
Plant response rating, Velvetleaf [3, 16]: 90
Velvetleaf plant response rating [3, 17]: 100
Plant response rating, Cocklebur [4, 14]: 90
Plant response rating, Cocklebur [4, 18]: 85
Plant response rating, Cocklebur [4, 11]: 90
Plant response rating, Cocklebur [4, 12]: 95
Cocklebur plant response rating [4, 13]: 95
Plant response rating, Cocklebur [4, 15]: 25
Plant response rating, Cocklebur [4, 16]: 80
Cocklebur plant response rating [4, 17]: 85
Plant response rating, Pigweed [5, 14]: 100
Plant response rating, Pigweed [5, 11]: 95
Plant response rating, Pigweed [5, 12]: 98
Plant response rating, Pigweed [5, 15]: 100
Plant response rating, Pigweed [5, 16]: 100
Pigweed plant response rating [5, 17]: 100
Plant response rating, Blackgrass [6, 14]: 30
Plant response rating, Blackgrass [6, 18]: 10
Plant response rating, Blackgrass [6, 11]: 15
Plant response rating, Blackgrass [6, 12]: 30
Blackgrass plant response rating [6, 13]: 30
Plant response rating, Blackgrass [6, 15]: 0
Plant response rating, Blackgrass [6, 16]: 0
Blackgrass plant response rating [6, 17]: 10
Plant response rating, Soybean (soybean (Glycine max); [14]): 75
Plant response rating, Soybean (soybean (Glycine max); [11]): 98
Plant response rating, Soybean (soybean (Glycine max); [12]): 98
Plant response rating, Soybean (soybean (Glycine max); [15]): 60
Plant response rating, Soybean (soybean (Glycine max); [16]): 60
Soybean plant response rating (soybean (Glycine max); [17]): 65
Plant response rating, Wheat [7, 14]: 5
Plant response rating, Wheat [7, 11]: 0
Plant response rating, Wheat [7, 12]: 5
Plant response rating, Wheat [7, 15]: 0
Plant response rating, Wheat [7, 16]: 0
Wheat plant response rating [7, 17]: 0
Plant response rating, Oat, Wild (wild oat (Avena fatua); [14]): 50
Plant response rating, Oat, Wild (wild oat (Avena fatua); [11]): 15
Plant response rating, Oat, Wild (wild oat (Avena fatua); [12]): 40
Plant response rating, Oat, Wild (wild oat (Avena fatua); [15]): 0
Plant response rating, Oat, Wild (wild oat (Avena fatua); [16]): 0
Oat, Wild plant response rating (wild oat (Avena fatua); [17]): 30
Plant response rating, Windgrass ([8]; 62 g ai/ha, scale 0 (no effect) to 100 (complete control), 13 to 15 days): 25
Plant response rating, Windgrass ([8]; 125 g ai/ha, visual rating after 13 to 15 days, scale 0 (no effect) to 100 (complete control)): 30
Plant response rating, Chickweed [9, 18]: 80
Plant response rating, Chickweed [9, 11]: 98
Plant response rating, Chickweed [9, 12]: 100
Chickweed plant response rating [9, 13]: 100
Plant response rating, Canarygrass [10, 18]: 0
Plant response rating, Canarygrass [10, 11]: 0
Plant response rating, Canarygrass [10, 12]: 5
Canarygrass plant response rating [10, 13]: 5

COCCn1c(-c2cccc(Cl)c2)ncc(C(=O)C2=C(O)CCCC2=O)c1=O [Compound 147]
Kochia plant response rating (0 to 100 scale) (kochia (Kochia scoparia); [19]): 75
Plant response rating, Kochia (kochia (Kochia scoparia); [20]): 40
Plant response rating, Kochia (kochia (Kochia scoparia); [21]): 80
Plant response rating, Kochia (kochia (Kochia scoparia); [22]): 100
Surinam Grass plant response rating (0 to 100 scale) [1, 19]: 65
Plant response rating, Surinam Grass [1, 20]: 50
Plant response rating, Surinam Grass [1, 21]: 75
Plant response rating, Surinam Grass [1, 22]: 75
Lambsquarters plant response rating (0 to 100 scale) [2, 19]: 95
Plant response rating, Lambsquarters [2, 20]: 85
Plant response rating, Lambsquarters [2, 21]: 98
Plant response rating, Lambsquarters [2, 22]: 100
Velvetleaf plant response rating (0 to 100 scale) [3, 19]: 80
Plant response rating, Velvetleaf [3, 20]: 60
Plant response rating, Velvetleaf [3, 21]: 95
Plant response rating, Velvetleaf [3, 22]: 100
Cocklebur plant response rating (0 to 100 scale) [4, 19]: 75
Plant response rating, Cocklebur [4, 20]: 50
Plant response rating, Cocklebur [4, 21]: 90
Plant response rating, Cocklebur [4, 22]: 100
Pigweed plant response rating (0 to 100 scale) [5, 19]: 95
Plant response rating, Pigweed [5, 20]: 85
Plant response rating, Pigweed [5, 21]: 100
Plant response rating, Pigweed [5, 22]: 100
Blackgrass plant response rating (0 to 100 scale) [6, 19]: 40
Plant response rating, Blackgrass [6, 20]: 10
Plant response rating, Blackgrass [6, 21]: 45
Plant response rating, Blackgrass [6, 22]: 55
Soybean plant response rating (0 to 100 scale) (soybean (Glycine max); [19]): 60
Plant response rating, Soybean (soybean (Glycine max); [20]): 15
Plant response rating, Soybean (soybean (Glycine max); [21]): 65
Plant response rating, Soybean (soybean (Glycine max); [22]): 85
Wheat plant response rating (0 to 100 scale) [7, 19]: 5
Plant response rating, Wheat [7, 20]: 0
Plant response rating, Wheat [7, 21]: 5
Plant response rating, Wheat [7, 22]: 10
Oat, Wild plant response rating (0 to 100 scale) (wild oat (Avena fatua); [19]): 10
Plant response rating, Oat, Wild (wild oat (Avena fatua); [20]): 5
Plant response rating, Oat, Wild (wild oat (Avena fatua); [21]): 20
Plant response rating, Oat, Wild (wild oat (Avena fatua); [22]): 45
Windgrass plant response rating (0 to 100 scale) [8, 19]: 50
Plant response rating, Windgrass ([8]; 31 g ai/ha, 0 to 100 scale (0 no effect, 100 complete control)): 10
Plant response rating, Windgrass ([8]; 125 g ai/ha, scale 0 to 100 (0 no effect, 100 complete control)): 55
Plant response rating, Windgrass ([8]; 250 g ai/ha, scale 0 to 100 (0 no effect, 100 complete control), 13 to 15 days): 70
Chickweed plant response rating (0 to 100 scale) [9, 19]: 90
Plant response rating, Chickweed [9, 20]: 70
Plant response rating, Chickweed [9, 21]: 98
Plant response rating, Chickweed [9, 22]: 98
Canarygrass plant response rating (0 to 100 scale) [10, 19]: 0
Plant response rating, Canarygrass [10, 20]: 0
Plant response rating, Canarygrass [10, 21]: 5
Plant response rating, Canarygrass [10, 22]: 5
